Experimental data as given in US11993573B2, “Chromane-substituted, tetrahydroquinoline-substituted and thiochromane-substituted heteroarotinoids as anti-cancer agents” (THE BOARD OF REGENTS FOR OKLAHOMA STATE UNIVERSITY, priority 2018, dated 2024).
Where two headings read alike, the source gives them in different places.

Key:
[1] = test system: human ovarian cancer cell line A2780; experiment: Growth inhibition assay (CellTiter 96 Non-Rad Cell Proliferation Assay); format: cell-based; settings: Homo sapiens
Description: To illustrate the general activity of the compounds inhibiting growth of human […] ovarian cancer cells, selected compounds were synthesized and evaluated. The compounds were dissolved in DMSO at a concentration of 0.01 M. The human ovarian cancer cell line A2780 was plated in 96-well tissue culture dishes at a concentration of 3000 cells per well in RPMI medium supplemented with 10% fetal bovine serum and a mixture of antibiotics and antimycotics. The next day, the cultures were treated in triplicate with compound concentrations ranging from 2 μM to 8 μM increments. For compound 12, additional experiments were performed with concentrations of 10 μM and a series of two-fold dilutions to 156 nM. Control cultures were treated with DMSO solvent only. After 72 h of incubation, the […] 96® Non-Rad Cell Proliferation Assay (Promega) was used to quantify the remaining metabolically living cells. After subtracting blank values, the optical density (OD) readouts of the assay for the treated cultures were normalized with the average OD of the control cultures. For each compound, the experiment was repeated at least once, resulting in a minimum of 6 dose-response curves. For SHetA2, 24 response curves were available for statistical fitting parameters. A custom program was written in GNU Octave, a free software compatible with Matlab, to fit the dose-response curves with a four-parameter sigmoid function, extracting the IC50 and efficacy (the maximal % growth inhibition) parameters.
To illustrate the useful biological activity of these chroman-substituted and tetrahydroquinoline-substituted heteroarotinoids, the compounds were screened against human […] ovarian cancer cells.

[2] = SHetA2, background; cited from earlier work
[3] = test system: 60 cancer cell lines available from the National Cancer Institute; settings: SHetA2, background; cited from earlier work
[4] = A2780, 72 h, Table 2, tetrahydroquinoline-containing members
[5] = A2780, 72 h, Table 2, maximal % growth inhibition, A2780, 72 h, read-out: Efficacy

| IC50 [1, 4] [µM] | melting point [°C] | Structure (SMILES) | Emax [1, 5] [%] | further results |
| --- | --- | --- | --- | --- |
| 5.4 | 83 to 85 | CN1c2ccc(NC(=S)Nc3ccc(OC(F)(F)F)cc3)cc2C(C)(C)C(=O)C1(C)C [Compound 11f, 1-(1,2,2,4,4-Pentamethyl-3-oxo-1,2,3,4-tetrahydroquinolin-6-yl)-3-(4-(trifluoromethoxy)phenyl)thiourea] | 76 |  |
| 4.49 | 151 to 153 | CN1c2ccc(NC(=S)Nc3ccc([N+](=O)[O-])cc3)cc2C(C)(C)CC1(C)C [Compound 12, 3-(1,2,2,4,4-Pentamethyl-1,2,3,4-tetrahydroquinolin-6-yl)-1-(4-nitrophenyl)thiourea] | 91.7 |  |
| 8.4 | 215 to 217 | CN1c2ccc(NC(=O)Nc3ccc([N+](=O)[O-])cc3)cc2C(C)(C)C(O)C1(C)C (centres unmarked) [Compound 13a, 1-(3-Hydroxy-1,2,2,4,4-pentamethyl-1,2,3,4-tetrahydroquinolin-6-yl)-3-(4-nitrophenyl)urea] | 26 |  |
| 6.7 | 213 to 215 | CN1c2ccc(NC(=O)Nc3ccc(C(F)(F)F)cc3)cc2C(C)(C)C(O)C1(C)C (centres unmarked) [Compound 13c, 1-(3-Hydroxy-1,2,2,4,4-pentamethyl-1,2,3,4-tetrahydroquinolin-6-yl)-3-(4-(trifluoromethyl)phenyl)urea] | 25 |  |
| 7.6 | 105 to 107 | CN1c2ccc(NC(=S)Nc3ccc(C(F)(F)F)cc3)cc2C(C)(C)C(O)C1(C)C (centres unmarked) [Compound 13d, 1-(3-Hydroxy-1,2,2,4,4-pentamethyl-1,2,3,4-tetrahydroquinolin-6-yl)-3-(4-(trifluoromethyl)phenyl)thiourea] | 56.1 |  |
| 7.8 | 188 to 189 | CN1c2ccc(NC(=O)Nc3ccc(OC(F)(F)F)cc3)cc2C(C)(C)C(O)C1(C)C (centres unmarked) [Compound 13e, 1-(3-Hydroxy-1,2,2,4,4-pentamethyl-1,2,3,4-tetrahydroquinolin-6-yl)-3-(4-(trifluoromethoxy)phenyl)urea] | 23.6 |  |
| 13.1 | 97 to 99 | CN1c2ccc(NC(=S)Nc3ccc(OC(F)(F)F)cc3)cc2C(C)(C)C(O)C1(C)C (centres unmarked) [Compound 13f, 1-(3-Hydroxy-1,2,2,4,4-pentamethyl-1,2,3,4-tetrahydroquinolin-6-yl)-3-(4-(trifluoromethoxy)phenyl)thiourea] | 15.3 |  |
| 3.17 |  | CC1(C)CC(C)(C)c2cc(NC(=S)Nc3ccc([N+](=O)[O-])cc3)ccc2S1 [SHetA2, reference compound] | 84.3 | IC50 ([1]; A2780, 72 h, Table 1, chroman-containing series): 3.17 µM; Emax ([1]; A2780, 72 h, Table 1, maximal % growth inhibition, A2780, 72 h, read-out: Efficacy): 84.3%; IC50 ([1]; A2780, Table 3, 14 series (thiochroman), A2780): 3.17 ± 0.1 µM; Emax ([1]; A2780, Table 3, 14 series, A2780, read-out: % Efficacy): 84.3 ± 0.7%; IC50 ([1]; A2780, running text, A2780): 3 µM; birth defects in animal studies [2]: does not cause birth defects; skin irritation [2]: no skin irritation; toxicity toward normal tissues [2]: essentially no toxicity toward normal tissues; growth inhibition of cancer cell lines [3]: inhibits the growth of all 60 cancer cell lines |
